Assay results reported in patent publication US9273067B2, “Pyrazolopyrimidine macrocycles as inhibitors of human immunodeficiency virus replication” (BRISTOL-MYERS SQUIBB COMPANY, priority 2014, dated 2016).

test system: NL-RLuc virus (recombinant HIV NL4-3 with Renilla Luciferase) in MT-2 cells; test: Inhibition of HIV replication (NL-RLuc virus in MT-2 cells, luciferase readout); type: cell-based, human immunodeficiency virus (HIV); conditions: MT2, 120 h, NL-RLuc virus infecting MT-2 cells, 5 days of incubation, 10% FBS, luciferase quantitation; at least 2 experiments
Source text: Inhibition of HIV Replication:
A recombinant NL-RLuc proviral clone was constructed in which a section of the nef gene from NL4-3 was replaced with the Renilla Luciferase gene. This virus is fully infectious and can undergo multiple cycles of replication in cell culture. In addition, the luciferous reporter provides a simple and easy method for quantitating the extent of virus growth and consequently, the antiviral activity of test compounds. The plasmid pNLRLuc contains the proviral NL-Rluc DNA cloned into pUC 18 at the PvuII site. The NL-RLuc virus was prepared by transfection of 293T cells with the plasmid pNLRLuc. Transfections were performed using the LipofectAMINE PLUS kit from Invitrogen (Carlsbad, Calif.) according to the manufacturer and the virus generated was titered in MT-2 cells. For susceptibility analyses, the titrated virus was used to infect MT-2 cells in the presence of compound, and after 5 days of incubation, cells were processed and quantitated for virus growth by the amount of expressed luciferase. Assay media was RPMI 1640 supplemented with 10% heat inactivated fetal bovine serum (FBS), 100 units/ml penicillin G/100 units/ml streptomycin, 10 mM HEPES buffer pH 7.55 and 2 mM L-glutamine. The results from at least 2 experiments were used to calculate the EC50 values. Luciferase was quantitated using the Dual Luciferase kit from Promega (Madison, Wis.). Susceptibility of viruses to compounds was determined by incubation in the presence of serial dilutions of the compound. The 50% effective concentration (EC50) was calculated by using the exponential form of the median effect equation where (Fa)=1/[1+(ED50/drug conc.)^m] (Johnson V A, Byington R T. Infectivity Assay. In Techniques in HIV Research. ed. Aldovini A, Walker B D. 71-76. New York: Stockton Press. 1990).

`Cc1ccc2c(c1)O[C@@H](C)CCCCOC1(C)CCN(CC1)c1c([C@H](OC(C)(C)C)C(=O)O)c(C)nc3cc(nn13)CO[C@H]2C` (single isomer, unassigned) [Example 55] and `Cc1ccc2c(c1)O[C@@H](C)CCCCOC1(C)CCN(CC1)c1c([C@H](OC(C)(C)C)C(=O)O)c(C)nc3cc(nn13)CO[C@@H]2C` (single isomer, unassigned) [Example 56] are within 1.5-fold of each other in EC50: 7 nM for the first, 8 nM for the second.

`Cc1nc2cc3nn2c(c1[C@H](OC(C)(C)C)C(=O)O)N1CCC(C)(CC1)OCC=CCOCc1cn(nn1)C3` [Example 1, (2S)-2-(tert-Butoxy)-2-[4,22-dimethyl-16,21-dioxa-1,5,7,8,11,12,13-heptaazapentacyclo[20.2.2.1^6,^9.1^11,^14.0^2,^7]octacosa-2,4,6(28),8,12,14(27),18-heptaen-3-yl]acetic acid] and `Cc1nc2cc3nn2c(c1[C@H](OC(C)(C)C)C(=O)O)N1CCC(C)(CC1)OCCCCOCc1cn(nn1)C3` [Example 2, (2S)-2-(tert-Butoxy)-2-{4,22-dimethyl-16,21-dioxa-1,5,7,8,11,12,13-heptaazapentacyclo[20.2.2.1^6,^9.1^11,^14.0^2,^7]octacosa-2,4,6(28),8,12,14(27)-hexaen-3-yl}acetic acid] are within 1.5-fold of each other in EC50: 2490 nM for the first, 2690 nM for the second.

Going from `Cc1nc2cc3nn2c(c1[C@H](OC(C)(C)C)C(=O)O)N1CCC(C)(CC1)OCCCCOCc1ccccc1-c1cn(nn1)C3` [Example 5, (2S)-2-(tert-Butoxy)-2-{4,28-dimethyl-22,27-dioxa-1,5,7,8,11,12,13-heptaazahexacyclo[26.2.2.1^6,^9.1^11,^14.0^2,^7.0^15,^20]tetratriaconta-2,4,6(34),8,12,14(33),15(20),16,18-nonaen-3-yl}acetic acid] to `Cc1nc2cc3nn2c(c1[C@H](OC(C)(C)C)C(=O)O)N1CCC(C)(CC1)OCCCCOc1cccc(c1)-c1cn(nn1)C3` [Example 6, (2S)-2-(tert-Butoxy)-2-{4,26-dimethyl-20,25-dioxa-1,5,7,8,11,12,13-heptaazahexacyclo[24.2.2.1^6,^9.1^11,^14.1^15,^19.0^2,^7]tritriaconta-2,4,6(33),8,12,14(32),15(31),16,18-nonaen-3-yl}acetic acid], the EC50 rises from 45 nM to 80 nM (1.8-fold).

Compared with `Cc1nc2cc3nn2c(c1[C@H](OC(C)(C)C)C(=O)O)N1CCC(C)(CC1)OCCCCOC1(CCCCC1)c1cn(nn1)C3` [Example 8, (2S)-2-(tert-Butoxy)-2-{4′,22′-dimethyl-16′,21′-dioxa-1′,5′,7′,8′,11′,12′,13′-heptaazaspiro[cyclohexane-1,15′-pentacyclo[20.2.2.1^6,^9.1^11,^14.0^2,^7]octacosane]-2′,4′,6′(28′),8′,12′,14′(27′)-hexaen-3′-yl}acetic acid], `Cc1nc2cc3nn2c(c1[C@H](OC(C)(C)C)C(=O)O)N1CCC(C)(CC1)OCCCCOC(C(C)C)c1cn(nn1)C3` (stereo partly drawn) [Example 10, (2S)-2-(tert-Butoxy)-2-[4,22-dimethyl-15-(propan-2-yl)-16,21-dioxa-1,5,7,8,11,12,13-heptaazapentacyclo[20.2.2.1^6,^9.1^11,^14.0^2,^7]octacosa-2,4,6(28),8,12,14(27)-hexaen-3-yl]acetic acid] is 2.3-fold higher in EC50: 111 nM for the first, 251 nM for the second.

Compared with `Cc1nc2cc3nn2c(c1[C@H](OC(C)(C)C)C(=O)O)N1CCC(C)(CC1)OCCCCOC(CC(C)C)c1cn(nn1)C3` (stereo partly drawn) [Example 12, (2S)-2-(tert-Butoxy)-2-[4,22-dimethyl-15-(2-methylpropyl)-16,21-dioxa-1,5,7,8,11,12,13-heptaazapentacyclo[20.2.2.1^6,^9.1^11,^14.0^2,^7]octacosa-2,4,6(28),8,12,14(27)-hexaen-3-yl]acetic acid], `Cc1nc2cc3nn2c(c1[C@H](OC(C)(C)C)C(=O)O)N1CCC(C)(CC1)OCCCCOc1ccccc1CC(=O)NC3` [Example 17, (2S)-2-(tert-Butoxy)-2-{4,26-dimethyl-12-oxo-20,25-dioxa-1,5,7,8,11-pentaazapentacyclo[24.2.2.1^6,^9.1^2,^7.0^14,^19]hentriaconta-2,4,6(31),8,14(19),15,17-heptaen-3-yl}acetic acid] is 5.7-fold lower in EC50: 136 nM for the first, 24 nM for the second. The second is the more potent here.

Going from `Cc1nc2cc3nn2c(c1[C@H](OC(C)(C)C)C(=O)O)N1CCC(C)(CC1)OCC=CCc1ccccc1C(=O)NC3` [Example 14, (2S)-2-(tert-Butoxy)-2-[4,24-dimethyl-12-oxo-23-oxa-1,5,7,8,11-pentaazapentacyclo[22.2.2.1^6,^9.0^2,^7.0^13,^18]nonacosa-2,4,6(29),8,13(18),14,16,20-octaen-3-yl]acetic acid] to `Cc1nc2cc3nn2c(c1[C@H](OC(C)(C)C)C(=O)O)N1CCC(C)(CC1)OCCCCc1ccccc1C(=O)NC3` [Example 15, (2S)-2-(tert-Butoxy)-2-{4,24-dimethyl-12-oxo-23-oxa-1,5,7,8,11-pentaazapentacyclo[22.2.2.1^6,^9.0^2,^7.0^13,^18]nonacosa-2,4,6(29),8,13(18),14,16-heptaen-3-yl}acetic acid], the EC50 rises from 45 nM to 120 nM (2.7-fold).

Compared with `Cc1cc(CN2CC=CCOC3(C)CCN(CC3)c3c([C@H](OC(C)(C)C)C(=O)O)c(C)nc4cc(nn34)CNC(=O)C2=O)ccc1F` [Example 18, (2S)-2-(tert-Butoxy)-2-[14-[(4-fluoro-3-methylphenyl)methyl]-4,20-dimethyl-12,13-dioxo-19-oxa-1,5,7,8,11,14-hexaazatetracyclo[18.2.2.1^6,^9.0^2,^7]pentacosa-2,4,6(25),8,16-pentaen-3-yl]acetic acid], `Cc1cc(CN2CCCCOC3(C)CCN(CC3)c3c([C@H](OC(C)(C)C)C(=O)O)c(C)nc4cc(nn34)CNC(=O)C2=O)ccc1F` [Example 19, (2S)-2-(tert-Butoxy)-2-{14-[(4-fluoro-3-methylphenyl)methyl]-4,20-dimethyl-12,13-dioxo-19-oxa-1,5,7,8,11,14-hexaazatetracyclo[18.2.2.1^6,^9.0^2,^7]pentacosa-2,4,6(25),8-tetraen-3-yl}acetic acid] is 3.6-fold lower in EC50: 122 nM for the first, 34 nM for the second.

same assay, conditions: NL-RLuc virus infecting MT-2 cells, 5 days of incubation, 10% FBS, luciferase quantitation; at least 2 experiments; read-out: EC50

`Cc1nc2cc3nn2c(c1[C@H](OC(C)(C)C)C(=O)O)N1CCC(C)(CC1)OC=CCCOC(C)(C)c1cn(nn1)C3` [Example 3, (2S)-2-(tert-Butoxy)-2-[4,15,15,22-tetramethyl-16,21-dioxa-1,5,7,8,11,12,13-heptaazapentacyclo[20.2.2.1^6,^9.1^11,^14.0^2,^7]octacosa-2,4,6(28),8,12,14(27),19-heptaen-3-yl]acetic acid] and `Cc1nc2cc3nn2c(c1[C@H](OC(C)(C)C)C(=O)O)N1CCC(C)(CC1)OCCC=COC(C)(C)c1cn(nn1)C3` [Example 4, (2S)-2-(tert-Butoxy)-2-[4,15,15,22-tetramethyl-16,21-dioxa-1,5,7,8,11,12,13-heptaazapentacyclo[20.2.2.1^6,^9.1^11,^14.0^2,^7]octacosa-2,4,6(28),8,12,14(27),17-heptaen-3-yl]acetic acid] are within 1.5-fold of each other in EC50: 253 nM for the first, 249 nM for the second.

`Cc1nc2cc3nn2c(c1[C@H](OC(C)(C)C)C(=O)O)N1CCC(C)(CC1)OC=CCCOC1(CCCCC1)c1cn(nn1)C3` [Example 7, (2S)-2-(tert-Butoxy)-2-[4′,22′-dimethyl-16′,21′-dioxa-1′,5′,7′,8′ 11′,12′,13′-heptaazaspiro[cyclohexane-1,15′-pentacyclo[20.2.2.1^6,^9.1^11,^14.0^2,^7]octacosane]-2′,4′,6′(28′),8′,12′,14′(27′),19′-heptaen-3′-yl]acetic acid] and `Cc1nc2cc3nn2c(c1[C@H](OC(C)(C)C)C(=O)O)N1CCC(C)(CC1)OCC/C=C\c1ccccc1OC3` [Example 20] are within 1.5-fold of each other in EC50: 134 nM for the first, 105 nM for the second.

For `Cc1nc2cc3nn2c(c1[C@H](OC(C)(C)C)C(=O)O)N1CCC(C)(CC1)OCC=CCOc1ccccc1CC(=O)NC3` [Example 16, (2S)-2-(tert-Butoxy)-2-[4,26-dimethyl-12-oxo-20,25-dioxa-1,5,7,8,11-pentaazapentacyclo[24.2.2.1^6,^9.1^2,^7.0^14,^19]hentriaconta-2,4,6(31),8,14(19),15,17,22-octaen-3-yl]acetic acid], the EC50 was 21 nM.

same assay, conditions: {}

First: Cc1nc2cc3nn2c(c1[C@H](OC(C)(C)C)C(=O)O)N1CCC(C)(CC1)OCCCCOC(C(C)C)c1cn(nn1)C3 (stereo partly drawn) [Example 11, (2S)-2-(tert-Butoxy)-2-[4,22-dimethyl-15-(propan-2-yl)-16,21-dioxa-1,5,7,8,11,12,13-heptaazapentacyclo[20.2.2.1^6,^9.1^11,^14.0^2,^7]octacosa-2,4,6(28),8,12,14(27)-hexaen-3-yl]acetic acid]
Second: Cc1nc2cc3nn2c(c1[C@H](OC(C)(C)C)C(=O)O)N1CCC(C)(CC1)OCCCCOC(CC(C)C)c1cn(nn1)C3 (stereo partly drawn) [Example 13, (2S)-2-(tert-Butoxy)-2-[4,22-dimethyl-15-(2-methylpropyl)-16,21-dioxa-1,5,7,8,11,12,13-heptaazapentacyclo[20.2.2.1^6,^9.1^11,^14.0^2,^7]octacosa-2,4,6(28),8,12,14(27)-hexaen-3-yl]acetic acid]
The EC50 of the first is 1.6-fold higher: 204 nM for the first, 124 nM for the second.
